Assay results reported in patent US7880007B2, “Bicyclic substituted phenyl piperidine modulators of muscarinic receptors” (Vertex Pharmaceuticals Incorporated, priority 2004, dated 2011).

Columns and labels:
Format in all cases: cell-based
[1] = biological target: T1, M1 muscarinic receptor (Homo sapiens, UniProt P11229); experiment: Functional mobilization of intracellular calcium (FLIPR), M1-CHO cells; settings: for Emax: 100% efficacy = maximum response obtained with the Carbachol control; for M1 Activity: M1-CHO cells, calcium mobilization (FLIPR)
T1 construct: expressed in transfected cells; host or cells: CHO (M1-CHO)
T1 sequence (P11229 1-460): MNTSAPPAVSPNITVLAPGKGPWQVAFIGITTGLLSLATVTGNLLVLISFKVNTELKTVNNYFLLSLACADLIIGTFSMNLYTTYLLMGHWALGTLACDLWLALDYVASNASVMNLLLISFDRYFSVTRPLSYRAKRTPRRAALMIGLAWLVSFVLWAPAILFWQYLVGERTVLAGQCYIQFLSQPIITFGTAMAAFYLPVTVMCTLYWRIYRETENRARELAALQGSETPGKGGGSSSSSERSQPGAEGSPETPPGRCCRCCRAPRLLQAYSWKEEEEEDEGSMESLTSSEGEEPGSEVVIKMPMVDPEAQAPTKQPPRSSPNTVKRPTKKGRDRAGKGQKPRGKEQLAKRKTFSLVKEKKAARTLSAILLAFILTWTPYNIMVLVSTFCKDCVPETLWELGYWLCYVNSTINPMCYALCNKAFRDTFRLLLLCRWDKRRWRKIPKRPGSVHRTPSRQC
In short: (§1)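 Calcium mobilisation read by FLIPR over 60 s (ex 488/em 540 nm) in recombinant muscarinic CHO lines loaded with calcium dye plus 1 mM probenecid. Compounds tested as agonists alone, or as inhibitors against EC80 carbachol after 15 min pre-incubation or co-addition; 0.5% DMSO; efficacy scaled to carbachol maximal response.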

[2] = biological target: T2, M2 muscarinic receptor (Homo sapiens, UniProt P08172); experiment: Functional mobilization of intracellular calcium (FLIPR), M2-CHO cells; settings: for Emax: 100% efficacy = maximum response obtained with the Carbachol control; for M2 Activity: M2-CHO cells, calcium mobilization (FLIPR)
T2 construct: expressed in transfected cells; host or cells: CHO (M2-CHO)
T2 sequence (P08172 1-466): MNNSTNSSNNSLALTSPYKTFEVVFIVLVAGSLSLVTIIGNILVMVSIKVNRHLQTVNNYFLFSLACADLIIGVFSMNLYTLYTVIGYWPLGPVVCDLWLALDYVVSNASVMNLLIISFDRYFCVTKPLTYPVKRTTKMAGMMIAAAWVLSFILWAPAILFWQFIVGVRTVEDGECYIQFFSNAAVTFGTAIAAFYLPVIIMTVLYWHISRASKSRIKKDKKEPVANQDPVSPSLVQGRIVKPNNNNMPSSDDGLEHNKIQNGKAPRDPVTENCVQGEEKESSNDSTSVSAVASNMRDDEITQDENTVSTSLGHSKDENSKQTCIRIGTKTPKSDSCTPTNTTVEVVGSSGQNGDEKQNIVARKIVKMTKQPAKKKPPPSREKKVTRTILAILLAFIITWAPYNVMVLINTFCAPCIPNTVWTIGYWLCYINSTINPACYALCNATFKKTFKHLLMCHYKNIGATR
In short: as §1

[3] = biological target: T3, M3 muscarinic receptor (Homo sapiens, UniProt P20309); experiment: Functional mobilization of intracellular calcium (FLIPR), M3-CHO cells; settings: for Emax: 100% efficacy = maximum response obtained with the Carbachol control; for M3 Activity: M3-CHO cells, calcium mobilization (FLIPR)
T3 construct: expressed in transfected cells; host or cells: CHO (M3-CHO)
T3 sequence (P20309 whole entry): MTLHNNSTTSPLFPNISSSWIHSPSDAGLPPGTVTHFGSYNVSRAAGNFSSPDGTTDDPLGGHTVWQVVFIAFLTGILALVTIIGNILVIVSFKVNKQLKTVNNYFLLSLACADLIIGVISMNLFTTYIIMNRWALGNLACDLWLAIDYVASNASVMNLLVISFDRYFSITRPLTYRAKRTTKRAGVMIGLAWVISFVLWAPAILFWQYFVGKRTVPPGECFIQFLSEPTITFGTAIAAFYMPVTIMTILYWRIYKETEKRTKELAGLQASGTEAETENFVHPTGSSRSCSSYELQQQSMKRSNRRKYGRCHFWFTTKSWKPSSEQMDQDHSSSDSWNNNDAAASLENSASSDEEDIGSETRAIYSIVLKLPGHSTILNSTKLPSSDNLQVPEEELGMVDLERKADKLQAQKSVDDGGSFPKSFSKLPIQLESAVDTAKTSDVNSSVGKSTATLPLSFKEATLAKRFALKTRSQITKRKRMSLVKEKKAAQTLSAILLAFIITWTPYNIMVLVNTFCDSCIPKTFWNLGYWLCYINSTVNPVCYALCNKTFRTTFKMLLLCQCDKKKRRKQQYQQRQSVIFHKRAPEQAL
In short: as §1

[4] = biological target: T4, M4 muscarinic receptor (Homo sapiens, UniProt P08173); experiment: Functional mobilization of intracellular calcium (FLIPR), M4-CHO cells; settings: for Emax: 100% efficacy = maximum response obtained with the Carbachol control; for M4 Activity: M4-CHO cells, calcium mobilization (FLIPR)
T4 construct: expressed in transfected cells; host or cells: CHO (M4-CHO)
T4 sequence (P08173 1-479): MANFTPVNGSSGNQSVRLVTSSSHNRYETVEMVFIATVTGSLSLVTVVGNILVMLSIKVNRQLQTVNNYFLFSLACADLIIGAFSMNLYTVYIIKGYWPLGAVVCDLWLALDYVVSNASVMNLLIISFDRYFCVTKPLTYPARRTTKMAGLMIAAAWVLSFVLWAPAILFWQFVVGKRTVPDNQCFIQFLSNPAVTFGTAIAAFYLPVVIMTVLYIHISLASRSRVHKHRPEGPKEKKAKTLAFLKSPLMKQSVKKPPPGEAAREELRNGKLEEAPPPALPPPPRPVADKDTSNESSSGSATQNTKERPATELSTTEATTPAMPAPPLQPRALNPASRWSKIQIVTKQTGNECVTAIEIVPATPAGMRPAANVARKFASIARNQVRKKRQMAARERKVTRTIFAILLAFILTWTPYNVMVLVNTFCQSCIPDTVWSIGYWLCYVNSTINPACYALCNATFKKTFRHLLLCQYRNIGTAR
In short: as §1

SMILES | Emax [1] | Emax [2] | Emax [3] | Emax [4] | M1 Activity [1] | M2 Activity [2] | M3 Activity [3] | M4 Activity [4]
COc1ccc(Cl)cc1C1(F)CCN(CC2CCCCC2)CC1 [Compound 257] | < 25% | < 25% | < 25% | 25 to 100% | + (activity was measured to be greater than 5.0 μM) | + (activity was measured to be greater than 5.0 μM) | + (activity was measured to be greater than 5.0 μM) | + (activity was measured to be greater than 5.0 μM)
CCS(=O)(=O)c1ccc(-c2ccc(OC)c(C3CCN([C@H]4C[C@H]5CC[C@H]4C5)CC3)c2)cc1 [Compound 258] | 25 to 100% | < 25% | < 25% | 25 to 100% | + (activity was measured to be greater than 5.0 μM) | + (activity was measured to be greater than 5.0 μM) | + (activity was measured to be greater than 5.0 μM) | ++ (activity was measured to be from 1.0 μM to 5.0 μM)
Fc1ccccc1C1CCN(C2C[C@H]3CC[C@H]2C3)CC1 (some centres unmarked) [Compound 259] | 25 to 100% | < 25% | < 25% | 25 to 100% | – | – | – | –
CCc1ccc(OC)c(C2CCN([C@@H]3C[C@H]4CC[C@H]3C4)CC2)c1 [Compound 260] | 25 to 100% | < 25% | < 25% | 25 to 100% | +++ (activity was measured to be less than 1.0 μM) | + (activity was measured to be greater than 5.0 μM) | + (activity was measured to be greater than 5.0 μM) | +++ (activity was measured to be less than 1.0 μM)
Cc1ccc(C(F)(F)F)cc1C1CCN(C2C[C@H]3CC[C@H]2C3)CC1 (some centres unmarked) [Compound 261] | 25 to 100% | 25 to 100% | < 25% | 25 to 100% | +++ (activity was measured to be less than 1.0 μM) | + (activity was measured to be greater than 5.0 μM) | + (activity was measured to be greater than 5.0 μM) | ++ (activity was measured to be from 1.0 μM to 5.0 μM)
CCOC(=O)N1CCC(N2CCC(F)(c3cc(F)ccc3OC)CC2)CC1 [Compound 262] | 25 to 100% | < 25% | < 25% | 25 to 100% | +++ (activity was measured to be less than 1.0 μM) | + (activity was measured to be greater than 5.0 μM) | + (activity was measured to be greater than 5.0 μM) | +++ (activity was measured to be less than 1.0 μM)
COc1ccc(-c2ccc(CC#N)cc2)cc1C1CCN(C2CCOCC2)CC1 [Compound 263] | < 25% | < 25% | < 25% | < 25% | + (activity was measured to be greater than 5.0 μM) | + (activity was measured to be greater than 5.0 μM) | + (activity was measured to be greater than 5.0 μM) | + (activity was measured to be greater than 5.0 μM)
CCOC(=O)N1CCC(CN2CCC(c3cc(C#N)ccc3OC)CC2)CC1 [Compound 264] | 25 to 100% | < 25% | < 25% | 25 to 100% | +++ (activity was measured to be less than 1.0 μM) | + (activity was measured to be greater than 5.0 μM) | + (activity was measured to be greater than 5.0 μM) | +++ (activity was measured to be less than 1.0 μM)
CCOC(=O)N1C2CCC1CC(N1CCC(c3cc(-c4ccc(C(=O)NC)cc4)ccc3OC)CC1)C2 (centres unmarked) [Compound 270] | 25 to 100% | < 25% | < 25% | 25 to 100% | +++ (activity was measured to be less than 1.0 μM) | + (activity was measured to be greater than 5.0 μM) | + (activity was measured to be greater than 5.0 μM) | +++ (activity was measured to be less than 1.0 μM)

Further lines, with some results ahead:

Emax [1] | Emax [2] | Emax [3] | Emax [4] | SMILES | M1 Activity [1] | M2 Activity [2] | M3 Activity [3] | M4 Activity [4]
25 to 100% | < 25% | < 25% | 25 to 100% | COc1ccccc1C1CCN(C2CCC(C)C2)CC1 (centres unmarked) [Compound 265] | + (activity was measured to be greater than 5.0 μM) | + (activity was measured to be greater than 5.0 μM) | + (activity was measured to be greater than 5.0 μM) | +++ (activity was measured to be less than 1.0 μM)
< 25% | < 25% | < 25% | 25 to 100% | COc1ccccc1C1CCN(C2CCN(C(C)=O)CC2)CC1 [Compound 266] | + (activity was measured to be greater than 5.0 μM) | + (activity was measured to be greater than 5.0 μM) | + (activity was measured to be greater than 5.0 μM) | ++ (activity was measured to be from 1.0 μM to 5.0 μM)
25 to 100% | < 25% | < 25% | 25 to 100% | COc1ccc(-c2ccc(F)cc2)cc1C1CCN([C@H]2C[C@H]3CC[C@H]2C3)CC1 [Compound 267] | + (activity was measured to be greater than 5.0 μM) | + (activity was measured to be greater than 5.0 μM) | + (activity was measured to be greater than 5.0 μM) | + (activity was measured to be greater than 5.0 μM)
25 to 100% | 25 to 100% | < 25% | 25 to 100% | COc1ccc(-c2ccc(S(C)(=O)=O)cc2)cc1C1CCN(C2CCCCC2)CC1 [Compound 268] | + (activity was measured to be greater than 5.0 μM) | + (activity was measured to be greater than 5.0 μM) | + (activity was measured to be greater than 5.0 μM) | ++ (activity was measured to be from 1.0 μM to 5.0 μM)
25 to 100% | < 25% | < 25% | 25 to 100% | O=C(COc1ccccc1C1CCN([C@H]2C[C@H]3CC[C@H]2C3)CC1)c1ccccc1 [Compound 269] | + (activity was measured to be greater than 5.0 μM) | + (activity was measured to be greater than 5.0 μM) | + (activity was measured to be greater than 5.0 μM) | +++ (activity was measured to be less than 1.0 μM)
25 to 100% | 25 to 100% | < 25% | 25 to 100% | CCOC(=O)N1CCC(CN2CCC(c3ccccc3OC(F)(F)F)CC2)CC1 [Compound 271] | +++ (activity was measured to be less than 1.0 μM) | ++ (activity was measured to be from 1.0 μM to 5.0 μM) | + (activity was measured to be greater than 5.0 μM) | +++ (activity was measured to be less than 1.0 μM)
